# Structures can show the parent of a compound that is named as a salt.
# Assays:
# [1] = oral administration; cited from earlier work
# [2] = Naloxone infusion by hollow microneedle array with resulting PK profile (serum naloxone by LCMSMS); conditions: female, pig, other: intradermal infusion by hollow microneedle device
compound,measurement,setting,value
"C=CCN1CC[C@]23c4c5ccc(O)c4O[C@H]2C(=O)CC[C@@]3(O)[C@H]1C5 [naloxone, naloxone hydrochloride]",bioavailability when administered orally,[1],about 2%
same,bioavailability,[2],107%

# Reference: patent publication US20110213335A1, “HOLLOW MICRONEEDLE ARRAY AND METHOD” (priority 2008, published 2011)
